Among the data in ChEMBL document CHEMBL1201862, “PubChem BioAssay data set” (2004) are EC50, AC50 and IC50 values, retold here.

Assay [1] concerns the target T1, Short transient receptor potential channel 4 (Mus musculus, UniProt Q9QUQ5).
T1 sequence (Q9QUQ5 whole entry): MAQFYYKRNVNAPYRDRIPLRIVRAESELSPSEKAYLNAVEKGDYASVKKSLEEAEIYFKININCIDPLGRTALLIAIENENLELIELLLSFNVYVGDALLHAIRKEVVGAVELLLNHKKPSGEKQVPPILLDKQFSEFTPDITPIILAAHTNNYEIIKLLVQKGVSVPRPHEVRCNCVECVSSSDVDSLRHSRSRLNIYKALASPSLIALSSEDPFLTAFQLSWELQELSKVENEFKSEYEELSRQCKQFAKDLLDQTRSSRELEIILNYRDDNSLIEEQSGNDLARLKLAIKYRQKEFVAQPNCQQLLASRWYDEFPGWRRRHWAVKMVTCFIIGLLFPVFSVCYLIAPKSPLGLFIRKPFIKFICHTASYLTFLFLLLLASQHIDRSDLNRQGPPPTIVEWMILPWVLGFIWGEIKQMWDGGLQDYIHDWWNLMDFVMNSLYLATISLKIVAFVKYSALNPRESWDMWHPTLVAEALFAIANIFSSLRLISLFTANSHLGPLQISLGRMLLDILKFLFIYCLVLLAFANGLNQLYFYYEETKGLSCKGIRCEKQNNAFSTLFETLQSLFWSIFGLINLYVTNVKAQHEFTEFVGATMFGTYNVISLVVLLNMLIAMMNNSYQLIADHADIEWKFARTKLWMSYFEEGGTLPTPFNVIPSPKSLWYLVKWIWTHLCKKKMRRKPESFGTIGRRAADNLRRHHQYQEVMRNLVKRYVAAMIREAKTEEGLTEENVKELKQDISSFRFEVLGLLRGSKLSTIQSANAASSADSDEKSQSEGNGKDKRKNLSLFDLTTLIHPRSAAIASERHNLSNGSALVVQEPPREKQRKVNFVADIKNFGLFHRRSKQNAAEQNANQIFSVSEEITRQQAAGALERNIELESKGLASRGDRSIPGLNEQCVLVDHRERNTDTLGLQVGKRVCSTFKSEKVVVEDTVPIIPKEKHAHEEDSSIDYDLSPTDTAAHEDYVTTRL
Description: mouse TRPC4 channel activators, dose response, cell-based, HEK293 TRPC4/mu-opioid, Fluo-4 calcium (AID 434937). The class given is functional.

In a further assay the target is Mu-type opioid receptor (Homo sapiens, UniProt P35372). Kind of assay: Counterscreen for agonists of heterodimerization of the mu 1 (OPRM1) and delta 1 (OPRD1) opioid receptors: Luminescence-based cell-based high throughput dose response assay to identify agonists of OPRM1 homodimerization. In kind it is functional. On the technique in general: A counterscreen serves to expose hits that act by an unwanted route or on another target.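 Also: U2OS cells expressing OPRM1 and beta-arrestin as split beta-galactosidase partners.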

Assay [2] has as its target Delta-type opioid receptor (Homo sapiens, UniProt P41143). Kind of assay: Counterscreen for agonists of heterodimerization of the mu 1 (OPRM1) and delta 1 (OPRD1) opioid receptors: Luminescence-based cell-based high throughput dose response assay to identify agonists of OPRD1 homodimerization. [Related pubchem assays (depositor defined):AID504326, AID504355, AID504692, AID504904, AID504905]. The class given is functional.

Assay [3] addresses Opioid receptors; mu & delta (Homo sapiens, UniProt P41143+P35372). Kind of assay: agonists of MOR-DOR heterodimerization, dose response, cell-based, luminescence (AID 588407). In kind it is functional.
In assay [4] the target is 5-hydroxytryptamine receptor 5A (Homo sapiens, UniProt P47898). Description: Counterscreen for agonists of OPRM1-OPRD1 heterodimerization: luminescence-based cell-based high throughput dose response assay to identify agonists of 5-hydroxytryptamine (serotonin) 5A receptor (HTR5A). [Related pubchem assays (depositor defined):AID504326, AID504355, AID504692, AID504904, AID504905]. The class given is functional.

Assay [5] in a line: NIH-3T3 fibroblast cytotoxicity, dose response, cytotoxicity control, cell-based, fluorescence, Alamar Blue, secondary assay (AID 2327).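 Also: NIH-3T3 mouse fibroblasts cultured with fluconazole at 8 µg/mL.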 The class given is functional. (In general: Resazurin is reduced to fluorescent resorufin, in cell work by metabolically active cells.)
The test system of a further assay is HEK293. Description: inhibitors of LMP1-driven NF-kB reporter, dose response, cell-based, HEK293, luciferase, cherry-pick (AID 588343). The class given is functional. The note with it: Homo sapiens.
In assay [6] the target is T2, Serine/threonine-protein phosphatase (Candida dubliniensis (strain CD36 / CBS 7987 / NCPF 3949 / NRRLY-17841) (Yeast), UniProt B9W6M3).
T2 sequence (B9W6M3 whole entry): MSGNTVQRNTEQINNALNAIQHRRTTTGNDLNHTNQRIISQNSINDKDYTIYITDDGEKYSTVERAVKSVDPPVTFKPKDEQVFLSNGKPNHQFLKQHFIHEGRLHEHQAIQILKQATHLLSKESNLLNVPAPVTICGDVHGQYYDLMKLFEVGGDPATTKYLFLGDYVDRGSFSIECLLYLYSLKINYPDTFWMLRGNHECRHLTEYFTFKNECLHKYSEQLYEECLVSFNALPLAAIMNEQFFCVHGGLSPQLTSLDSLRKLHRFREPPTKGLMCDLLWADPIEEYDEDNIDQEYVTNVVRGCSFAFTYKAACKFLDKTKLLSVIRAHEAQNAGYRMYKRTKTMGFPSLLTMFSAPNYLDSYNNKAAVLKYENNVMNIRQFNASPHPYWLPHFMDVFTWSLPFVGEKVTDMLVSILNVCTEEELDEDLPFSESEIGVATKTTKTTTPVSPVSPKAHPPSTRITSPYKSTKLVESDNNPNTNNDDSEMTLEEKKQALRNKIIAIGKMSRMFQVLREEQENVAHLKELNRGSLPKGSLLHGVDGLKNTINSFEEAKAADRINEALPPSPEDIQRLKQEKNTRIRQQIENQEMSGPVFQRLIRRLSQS
Kind of assay: calcineurin pathway inhibitors in yeast reporter, dose response, S. cerevisiae, CDRE-lacZ, luminescence, secondary (AID 2388).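 Also: yeast reporter cells carrying a calcineurin-responsive lacZ construct stimulated with calcium chloride; luminescent beta-galactosidase reporter signal in whole cells rather than isolated phosphatase activity; potency for inhibition where a drop in reporter signal means calcineurin blockade.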 The class given is functional, cell-based.

For assay [7], the target named is Dual specificity tyrosine-phosphorylation-regulated kinase 1A (Rattus norvegicus, UniProt Q63470). The class given is biochemical, Homo sapiens.
Assay [8] is described as follows: C. albicans growth with fluconazole, confirmation, fluorescence, retest (AID 2467). The class given is functional, cell-based.
The target in assay [9] is ATP-dependent molecular chaperone HSP82 (Candida albicans (strain WO-1) (Yeast), UniProt C4YTQ8). Kind of assay: loss of DOC-induced GRE-beta-galactosidase reporter signal, dose response, Hsp90 inhibitor project, S. cerevisiae, luminescence (AID 2400).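 Also: beta-galactosidase luminescence from glucocorticoid response element reporter as proxy for Hsp90 function; inhibitor potency where signal loss means Hsp90 inhibition.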 The class given is functional, cell-based.
The nature of assay [10]: cells. In kind it is functional, cell-based.
Assay [11] in a line: cells. In kind it is functional, cell-based. The source holds these as a separate data set.
Assay [12] deals with Photoreceptor-specific nuclear receptor (Homo sapiens, UniProt Q9Y5X4). In kind it is functional, cell-based.
Assay [13] is described as follows: cytotoxicity in HEK-293T cells, dose response, cytotoxicity control for TCR NF-kB inhibitor project, luminescence, T-cell screen hits (AID 489026).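 Also: cells exposed to compound about 14 hours before the viability readout.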 The class given is functional, cell-based.
In assay [14] the target is SWI/SNF-related matrix-associated actin-dependent regulator of chromatin subfamily A member 2 (Homo sapiens, UniProt P51531). Kind of assay: Luminescence-based cell-based high throughput dose response assay to identify activators of the function of SWI/SNF related, matrix associated, actin dependent regulator of chromatin, subfamily a, member 2 (SMARCA2, BRM). The class given is functional.

Assay [15] is described as follows: Counterscreen for activators of the function of SWI/SNF related, matrix associated, actin dependent regulator of chromatin, subfamily a, member 2 (SMARCA2, BRM): Luminescence-based cell-based high throughput dose response assay to identify non-selective compounds using the VP16 reporter assay. In kind it is functional.
A further assay has as its target T3, Hexokinase HKDC1 (Homo sapiens, UniProt Q2TB90).
T3 sequence (Q2TB90 whole entry): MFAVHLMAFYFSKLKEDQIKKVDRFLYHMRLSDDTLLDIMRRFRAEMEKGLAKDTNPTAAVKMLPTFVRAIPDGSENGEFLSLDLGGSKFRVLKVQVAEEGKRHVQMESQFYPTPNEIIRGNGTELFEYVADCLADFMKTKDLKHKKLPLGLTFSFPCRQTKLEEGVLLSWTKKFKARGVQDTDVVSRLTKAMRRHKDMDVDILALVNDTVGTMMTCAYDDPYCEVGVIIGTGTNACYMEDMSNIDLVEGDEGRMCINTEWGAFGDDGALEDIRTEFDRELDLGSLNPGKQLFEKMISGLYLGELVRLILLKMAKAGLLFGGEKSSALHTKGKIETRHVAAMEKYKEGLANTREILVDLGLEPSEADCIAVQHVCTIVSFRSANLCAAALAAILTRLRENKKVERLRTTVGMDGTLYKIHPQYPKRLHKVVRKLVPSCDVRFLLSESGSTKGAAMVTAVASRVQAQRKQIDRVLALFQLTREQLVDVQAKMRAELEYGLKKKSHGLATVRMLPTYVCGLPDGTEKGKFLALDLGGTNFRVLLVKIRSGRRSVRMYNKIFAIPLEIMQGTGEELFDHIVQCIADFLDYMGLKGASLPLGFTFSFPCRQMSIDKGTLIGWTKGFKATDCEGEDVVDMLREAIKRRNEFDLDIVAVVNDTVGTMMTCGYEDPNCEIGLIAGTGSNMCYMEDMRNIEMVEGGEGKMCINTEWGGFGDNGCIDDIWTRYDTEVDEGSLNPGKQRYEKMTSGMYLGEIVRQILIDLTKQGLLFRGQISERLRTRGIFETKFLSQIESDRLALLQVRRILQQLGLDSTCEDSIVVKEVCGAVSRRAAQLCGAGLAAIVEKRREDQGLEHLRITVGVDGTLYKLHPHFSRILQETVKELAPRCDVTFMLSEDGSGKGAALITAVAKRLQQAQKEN
Kind of assay: SAR analysis of small molecule inhibitors of hexokinase domain containing I (HKDC1). [Related pubchem assays (depositor defined):AID493160, AID493190]. The class given is functional.

The target in the next assay is T4, Hexokinase-1 (Homo sapiens, UniProt P19367).
T4 sequence (P19367 whole entry): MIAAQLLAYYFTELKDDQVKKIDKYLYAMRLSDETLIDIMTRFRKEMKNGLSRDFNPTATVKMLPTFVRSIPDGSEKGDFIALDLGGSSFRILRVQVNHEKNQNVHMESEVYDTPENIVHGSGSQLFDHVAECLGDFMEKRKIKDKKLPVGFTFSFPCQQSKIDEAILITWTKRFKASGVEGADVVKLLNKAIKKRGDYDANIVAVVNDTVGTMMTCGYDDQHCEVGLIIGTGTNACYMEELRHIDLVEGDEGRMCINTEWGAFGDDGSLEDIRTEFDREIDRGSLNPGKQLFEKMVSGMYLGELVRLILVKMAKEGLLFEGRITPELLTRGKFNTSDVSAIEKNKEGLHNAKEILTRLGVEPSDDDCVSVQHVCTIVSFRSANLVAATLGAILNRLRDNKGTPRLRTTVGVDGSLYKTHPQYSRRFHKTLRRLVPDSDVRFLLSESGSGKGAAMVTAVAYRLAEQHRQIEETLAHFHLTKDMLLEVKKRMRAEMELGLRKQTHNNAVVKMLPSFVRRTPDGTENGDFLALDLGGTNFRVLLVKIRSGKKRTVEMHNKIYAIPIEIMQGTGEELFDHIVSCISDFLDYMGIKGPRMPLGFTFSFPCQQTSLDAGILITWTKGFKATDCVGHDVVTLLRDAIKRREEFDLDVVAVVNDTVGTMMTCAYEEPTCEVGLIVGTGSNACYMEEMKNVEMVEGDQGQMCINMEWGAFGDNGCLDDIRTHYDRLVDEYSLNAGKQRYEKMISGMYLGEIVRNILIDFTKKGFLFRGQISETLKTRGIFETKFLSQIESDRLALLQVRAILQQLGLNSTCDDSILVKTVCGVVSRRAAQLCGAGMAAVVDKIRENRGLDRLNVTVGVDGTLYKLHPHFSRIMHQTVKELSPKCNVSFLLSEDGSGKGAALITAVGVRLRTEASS
Kind of assay: SAR analysis of small molecule inhibitors of hexokinase domain containing I (HKDC1) in the hexokinase 1 selectivity assay. [Related pubchem assays (depositor defined):AID493160, AID493190]. The class given is functional.

Calls of active or inactive are those of the source. Where only a bound is given, the exact number is not on record here.

Delta-type opioid receptor, sequence (P41143 whole entry): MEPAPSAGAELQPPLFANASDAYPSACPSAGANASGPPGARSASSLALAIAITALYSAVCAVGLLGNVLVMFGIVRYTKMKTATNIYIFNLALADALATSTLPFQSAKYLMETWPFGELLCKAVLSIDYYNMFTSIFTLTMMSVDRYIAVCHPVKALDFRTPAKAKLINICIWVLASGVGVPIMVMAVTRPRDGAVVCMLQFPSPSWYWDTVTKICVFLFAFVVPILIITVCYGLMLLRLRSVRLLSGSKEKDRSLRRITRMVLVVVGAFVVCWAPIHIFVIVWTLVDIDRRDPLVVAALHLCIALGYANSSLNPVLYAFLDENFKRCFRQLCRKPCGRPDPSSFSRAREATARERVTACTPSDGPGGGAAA
ATP-dependent molecular chaperone HSP82, sequence (C4YTQ8 whole entry): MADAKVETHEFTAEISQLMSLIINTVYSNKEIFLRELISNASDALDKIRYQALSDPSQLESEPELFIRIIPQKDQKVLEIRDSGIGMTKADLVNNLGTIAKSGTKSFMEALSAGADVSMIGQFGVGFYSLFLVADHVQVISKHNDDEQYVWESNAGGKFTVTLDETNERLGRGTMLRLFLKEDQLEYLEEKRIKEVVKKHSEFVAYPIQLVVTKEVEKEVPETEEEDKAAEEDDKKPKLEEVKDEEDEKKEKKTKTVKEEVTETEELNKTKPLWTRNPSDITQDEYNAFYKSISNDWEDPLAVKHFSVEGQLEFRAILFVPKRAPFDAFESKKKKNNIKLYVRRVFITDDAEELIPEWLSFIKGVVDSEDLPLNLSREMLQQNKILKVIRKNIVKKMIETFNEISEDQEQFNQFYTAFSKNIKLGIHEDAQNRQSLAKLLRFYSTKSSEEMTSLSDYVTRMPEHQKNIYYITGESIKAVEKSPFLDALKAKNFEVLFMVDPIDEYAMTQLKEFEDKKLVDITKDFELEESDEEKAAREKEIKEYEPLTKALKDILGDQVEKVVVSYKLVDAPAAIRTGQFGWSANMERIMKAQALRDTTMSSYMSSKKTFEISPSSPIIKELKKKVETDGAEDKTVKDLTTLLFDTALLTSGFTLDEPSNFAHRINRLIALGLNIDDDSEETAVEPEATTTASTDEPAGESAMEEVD
Mu-type opioid receptor, sequence (P35372 whole entry): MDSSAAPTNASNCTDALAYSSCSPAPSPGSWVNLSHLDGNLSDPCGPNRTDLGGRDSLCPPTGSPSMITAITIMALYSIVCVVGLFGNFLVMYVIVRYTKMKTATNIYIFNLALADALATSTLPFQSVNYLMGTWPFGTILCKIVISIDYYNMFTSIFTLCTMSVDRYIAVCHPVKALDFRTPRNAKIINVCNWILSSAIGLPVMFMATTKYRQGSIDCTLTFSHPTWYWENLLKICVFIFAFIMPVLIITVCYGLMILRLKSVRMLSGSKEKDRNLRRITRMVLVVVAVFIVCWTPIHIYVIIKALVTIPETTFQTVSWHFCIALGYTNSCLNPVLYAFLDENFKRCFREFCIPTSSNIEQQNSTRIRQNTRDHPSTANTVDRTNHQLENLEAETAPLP
SWI/SNF-related matrix-associated actin-dependent regulator of chromatin subfamily A member 2, sequence (P51531 whole entry): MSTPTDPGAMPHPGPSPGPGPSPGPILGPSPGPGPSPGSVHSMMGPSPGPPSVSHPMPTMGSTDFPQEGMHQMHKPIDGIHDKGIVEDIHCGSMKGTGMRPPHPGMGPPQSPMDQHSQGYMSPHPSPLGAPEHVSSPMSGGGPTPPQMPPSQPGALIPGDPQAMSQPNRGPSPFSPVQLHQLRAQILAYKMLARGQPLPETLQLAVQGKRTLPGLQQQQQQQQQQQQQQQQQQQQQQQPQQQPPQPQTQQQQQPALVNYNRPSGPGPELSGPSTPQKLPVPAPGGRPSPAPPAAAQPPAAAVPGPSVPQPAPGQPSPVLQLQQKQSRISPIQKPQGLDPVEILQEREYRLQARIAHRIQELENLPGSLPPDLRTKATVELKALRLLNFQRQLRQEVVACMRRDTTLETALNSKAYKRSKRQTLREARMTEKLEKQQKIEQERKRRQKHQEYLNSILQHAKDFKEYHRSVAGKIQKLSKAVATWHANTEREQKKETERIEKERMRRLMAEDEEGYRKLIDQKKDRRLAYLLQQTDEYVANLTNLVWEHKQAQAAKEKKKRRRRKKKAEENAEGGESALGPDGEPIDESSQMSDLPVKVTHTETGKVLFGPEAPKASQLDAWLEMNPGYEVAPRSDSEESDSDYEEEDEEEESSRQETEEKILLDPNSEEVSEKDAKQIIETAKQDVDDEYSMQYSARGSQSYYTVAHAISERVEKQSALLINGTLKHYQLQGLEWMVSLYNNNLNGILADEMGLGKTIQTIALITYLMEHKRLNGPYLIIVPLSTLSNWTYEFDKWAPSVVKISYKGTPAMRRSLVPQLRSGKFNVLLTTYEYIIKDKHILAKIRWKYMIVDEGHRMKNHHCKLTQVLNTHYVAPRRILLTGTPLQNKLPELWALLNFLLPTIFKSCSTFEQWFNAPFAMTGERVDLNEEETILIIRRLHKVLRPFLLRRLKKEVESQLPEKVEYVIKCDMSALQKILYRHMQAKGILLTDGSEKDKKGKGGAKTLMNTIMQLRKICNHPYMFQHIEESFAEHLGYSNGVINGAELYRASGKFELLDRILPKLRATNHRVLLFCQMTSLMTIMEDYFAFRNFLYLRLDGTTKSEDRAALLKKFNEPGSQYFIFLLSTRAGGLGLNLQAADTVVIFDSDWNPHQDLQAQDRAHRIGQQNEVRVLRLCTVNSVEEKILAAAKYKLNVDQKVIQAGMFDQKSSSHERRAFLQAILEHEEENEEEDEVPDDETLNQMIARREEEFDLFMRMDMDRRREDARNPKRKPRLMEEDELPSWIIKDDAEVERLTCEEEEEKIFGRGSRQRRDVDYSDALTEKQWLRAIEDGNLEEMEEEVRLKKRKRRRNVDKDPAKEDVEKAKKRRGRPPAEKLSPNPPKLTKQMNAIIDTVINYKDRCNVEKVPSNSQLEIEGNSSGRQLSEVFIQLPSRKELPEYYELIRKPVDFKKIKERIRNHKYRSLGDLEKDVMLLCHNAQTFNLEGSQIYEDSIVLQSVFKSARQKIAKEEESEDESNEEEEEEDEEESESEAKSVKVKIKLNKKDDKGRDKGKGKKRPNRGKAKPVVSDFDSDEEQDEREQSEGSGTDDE
5-hydroxytryptamine receptor 5A, sequence (P47898 whole entry): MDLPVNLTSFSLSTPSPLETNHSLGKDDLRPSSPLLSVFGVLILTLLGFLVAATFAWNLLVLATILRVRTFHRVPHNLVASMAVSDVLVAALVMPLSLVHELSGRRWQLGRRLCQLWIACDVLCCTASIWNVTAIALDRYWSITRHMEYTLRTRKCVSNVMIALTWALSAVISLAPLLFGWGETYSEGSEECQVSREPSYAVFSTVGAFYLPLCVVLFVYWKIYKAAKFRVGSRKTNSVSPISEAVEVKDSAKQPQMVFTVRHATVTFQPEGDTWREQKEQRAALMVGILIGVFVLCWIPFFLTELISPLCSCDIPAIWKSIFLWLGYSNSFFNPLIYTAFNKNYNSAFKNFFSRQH
Photoreceptor-specific nuclear receptor, sequence (Q9Y5X4 whole entry): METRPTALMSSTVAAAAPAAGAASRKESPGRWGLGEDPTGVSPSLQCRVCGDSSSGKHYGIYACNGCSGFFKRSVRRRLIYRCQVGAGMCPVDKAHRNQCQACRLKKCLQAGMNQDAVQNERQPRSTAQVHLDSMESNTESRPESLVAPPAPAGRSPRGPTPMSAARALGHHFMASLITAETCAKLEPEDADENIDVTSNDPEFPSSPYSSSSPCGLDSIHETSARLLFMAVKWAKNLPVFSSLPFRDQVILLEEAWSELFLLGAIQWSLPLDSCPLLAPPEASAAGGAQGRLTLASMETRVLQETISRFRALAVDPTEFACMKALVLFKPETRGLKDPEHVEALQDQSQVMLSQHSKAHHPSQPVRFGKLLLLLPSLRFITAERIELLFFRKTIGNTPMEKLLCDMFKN

As usually defined, the EC50 is the concentration at which the effect is half-maximal. For the compound `Cc1ccc(-n2cc(CNC(C)c3cnn(C)c3C)c(-c3ccc(F)cc3)n2)cc1` (centres undefined), the 50% effective concentration (EC50) in [1] is 0.376 µM (active); on Mu-type opioid receptor, 13 µM (inactive); in [2], 50 µM (inactive); in [3], above 0.1268 µM; in assay [4] it was > 92.5 µM (inactive).
Usually AC50 stands for the concentration giving half of the maximal activity seen. One may read the IC50 as the point on the concentration scale where inhibition reaches its midpoint. Regarding `COc1ccc2c(c1)/C(=C/c1cnc[nH]1)C(=O)N2` [SU-9516], the EC50 is > 160 µM (inactive) in [5]; > 180 µM (inactive) in assay [6]; 0.956 µM (active) in assay [8]; > 160 µM (inactive) in assay [9]; > 350 µM (not active) in “cells [10]”; > 350 µM (not active) in the assay “cells [11]”. Moreover, the EC50 in assay [14] and in [15] was > 91.2 µM (inactive) throughout. Also, the AC50 in the assay with HEK293 was 34.2 µM (active); in assay [7], 0.995 µM (active). The IC50 was 1.19 µM (active) in assay [12] and 71.8 µM (inactive) in assay [13].
As to `O=c1c2ccccc2nc(/C=C/c2cccc(O)c2)n1Cc1ccccc1`, the IC50 at Hexokinase HKDC1 and at Hexokinase-1 was > 80 µM (inactive) throughout.
